From US12459918B2, “Isoquinolinone derivatives serving as rock protein kinase inhibitors and use thereof” (GUANGZHOU OCUSUN OPHTHALMIC BIOTECHNOLOGY CO., LTD., priority 2019, dated 2025)

System: New Zealand rabbits with normal intraocular pressure
Assay: Intraocular pressure reduction experiment in New Zealand rabbits with normal intraocular pressure
Type: in vivo
Settings: for Intraocular pressure in the left eye: 20 mg/mL group, left eye (saline or solvent); for Intraocular pressure in the right eye: 20 mg/mL in right eye; for Reduction magnitude of intraocular pressure: 20 mg/mL, left minus right eye
Source text: Experimental Example 2. Intraocular Pressure Reduction Experiment in New Zealand Rabbits with Normal Intraocular Pressure
Rabbits with normal intraocular pressure were adopted to screen intraocular pressure reduction actions of the potential compounds by eye-drop administration.
Male New Zealand rabbits, aged 97-127 days, weighted 2.65-3.5 kg, purchased from PizhouDongfang Breeding Co. Ltd.
The male New Zealand rabbits were randomly divided into 8 rabbits/per group using a computer-generated randomization method Animals in each group were eye-dropped with different test samples in the right eye, and normal saline or solvent in the left eye, and the volume of the administration was both 50 μL/eye. The intraocular pressure of the animals was measured before administration and in 1, 2, 4, 6, 8 and 10 hours after the administration, respectively.

## Cc1cn(COC(=O)c2ccccc2)c(=O)c2cccc(S(=O)(=O)N3CC[C@H](N)C3)c12 [Compound 64]
1 hour after administration
  Intraocular pressure in the left eye: 11.96 mmHg
  Intraocular pressure in the right eye: 11.54 mmHg
  Reduction magnitude of intraocular pressure: 0.42 mmHg
2 hours after administration
  Intraocular pressure in the left eye: 9.79 mmHg
  Intraocular pressure in the right eye: 7.42 mmHg
  Reduction magnitude of intraocular pressure: 2.37 mmHg
4 hours after administration
  Intraocular pressure in the left eye: 11.50 mmHg
  Intraocular pressure in the right eye: 7.13 mmHg
  Reduction magnitude of intraocular pressure: 4.37 mmHg
6 hours after administration
  Intraocular pressure in the left eye: 11.54 mmHg
  Intraocular pressure in the right eye: 7.38 mmHg
  Reduction magnitude of intraocular pressure: 4.16 mmHg
8 hours after administration
  Intraocular pressure in the left eye: 11.75 mmHg
  Intraocular pressure in the right eye: 7.63 mmHg
  Reduction magnitude of intraocular pressure: 4.12 mmHg
10 hours after administration
  Intraocular pressure in the left eye: 11.88 mmHg
  Intraocular pressure in the right eye: 9.71 mmHg
  Reduction magnitude of intraocular pressure: 2.17 mmHg
Before administration
  Intraocular pressure in the left eye: 11.29 mmHg
  Intraocular pressure in the right eye: 12.04 mmHg
  Reduction magnitude of intraocular pressure: −0.75 mmHg
